Data published in US10004711B2, “Methods and compositions comprising 10-hydroxy-2-decenoic acid” (DSM IP ASSETS B.V., priority 2014, dated 2018).

Assay: Body weight of aged male rats fed QBA (Example 7)
Format: in vivo, rat
Method: Aged male rats were fed 10-Hydroxy-2-decenoic acid (QBA) for approximately 7 months from 11-months to 18-months of age and the weight of rats was recorded.

O=C(O)C=CCCCCCCCO [QBA, 10-Hydroxy-2-decenoic acid]
Avg Wt (QBA 4 mg/kg/day, study day 141): 593.1 g
Avg Wt (QBA 4 mg/kg/day, study day 148): 588.0 g
Avg Wt (QBA 4 mg/kg/day, study day 155): 587.8 g
Avg Wt (QBA 4 mg/kg/day, study day 162): 589.5 g
Avg Wt (QBA 4 mg/kg/day, study day 169): 594.0 g
Avg Wt (QBA 4 mg/kg/day, study day 176): 601.7 g
Avg Wt (QBA 4 mg/kg/day, study day 182): 588.0 g
Avg Wt (QBA 4 mg/kg/day, study day 190): 597.8 g
Avg Wt (QBA 4 mg/kg/day, study day 197): 597.7 g
Avg Wt (QBA 4 mg/kg/day, study day 204): 601.8 g
Avg Wt (QBA 4 mg/kg/day, study day 211): 596.6 g
Avg Wt (QBA 4 mg/kg/day, study day 217): 595.9 g
Avg Wt (QBA 12 mg/kg/day, study day 0): 508.7 g
Avg Wt (QBA 12 mg/kg/day, study day 7): 508.8 g
Avg Wt (QBA 12 mg/kg/day, study day 21): 508.0 g
Avg Wt (QBA 12 mg/kg/day, study day 29): 490.2 g
Avg Wt (QBA 12 mg/kg/day, study day 36): 511.7 g
Avg Wt (QBA 12 mg/kg/day, study day 50): 554.3 g
Avg Wt (QBA 12 mg/kg/day, study day 57): 551.4 g
Avg Wt (QBA 12 mg/kg/day, study day 64): 567.6 g
Avg Wt (QBA 12 mg/kg/day, study day 71): 574.1 g
Avg Wt (QBA 12 mg/kg/day, study day 78): 573.1 g
Avg Wt (QBA 12 mg/kg/day, study day 85): 574.6 g
Avg Wt (QBA 12 mg/kg/day, study day 92): 581.2 g
Avg Wt (QBA 12 mg/kg/day, study day 99): 584.5 g
Avg Wt (QBA 12 mg/kg/day, study day 106): 591.2 g
Avg Wt (QBA 12 mg/kg/day, study day 113): 591.2 g
Avg Wt (QBA 12 mg/kg/day, study day 120): 586.1 g
Avg Wt (QBA 12 mg/kg/day, study day 127): 593.3 g
Avg Wt (QBA 12 mg/kg/day, study day 141): 595.8 g
Avg Wt (QBA 12 mg/kg/day, study day 148): 592.9 g
Avg Wt (QBA 12 mg/kg/day, study day 155): 591.1 g
Avg Wt (QBA 12 mg/kg/day, study day 162): 580.5 g
Avg Wt (QBA 12 mg/kg/day, study day 169): 588.2 g
Avg Wt (QBA 12 mg/kg/day, study day 176): 593.0 g
Avg Wt (QBA 12 mg/kg/day, study day 182): 590.6 g
Avg Wt (QBA 12 mg/kg/day, study day 190): 599.5 g
Avg Wt (QBA 12 mg/kg/day, study day 197): 600.8 g
Avg Wt (QBA 12 mg/kg/day, study day 204): 595.5 g
Avg Wt (QBA 12 mg/kg/day, study day 211): 599.6 g
Avg Wt (QBA 12 mg/kg/day, study day 217): 593.7 g
Avg Wt (QBA 24 mg/kg/day, study day 0): 516.8 g
Avg Wt (QBA 24 mg/kg/day, study day 7): 510.9 g
Avg Wt (QBA 24 mg/kg/day, study day 21): 530.8 g
Avg Wt (QBA 24 mg/kg/day, study day 29): 512.3 g
Avg Wt (QBA 24 mg/kg/day, study day 36): 546.4 g
Avg Wt (QBA 24 mg/kg/day, study day 50): 574.6 g
Avg Wt (QBA 24 mg/kg/day, study day 57): 586.8 g
Avg Wt (QBA 24 mg/kg/day, study day 64): 594.2 g
Avg Wt (QBA 24 mg/kg/day, study day 71): 598.5 g
Avg Wt (QBA 24 mg/kg/day, study day 78): 600.7 g
Avg Wt (QBA 24 mg/kg/day, study day 85): 608.8 g
Avg Wt (QBA 24 mg/kg/day, study day 92): 614.9 g
Avg Wt (QBA 24 mg/kg/day, study day 99): 618.1 g
Avg Wt (QBA 24 mg/kg/day, study day 106): 626.7 g
Avg Wt (QBA 24 mg/kg/day, study day 113): 628.4 g
Avg Wt (QBA 24 mg/kg/day, study day 120): 628.6 g
Avg Wt (QBA 24 mg/kg/day, study day 127): 630.3 g
Avg Wt (QBA 24 mg/kg/day, study day 141): 632.0 g
Avg Wt (QBA 24 mg/kg/day, study day 148): 635.4 g
Avg Wt (QBA 24 mg/kg/day, study day 155): 636.3 g
Avg Wt (QBA 24 mg/kg/day, study day 162): 637.3 g
Avg Wt (QBA 24 mg/kg/day, study day 169): 628.4 g
Avg Wt (QBA 24 mg/kg/day, study day 176): 643.9 g
Avg Wt (QBA 24 mg/kg/day, study day 182): 646.0 g
Avg Wt (QBA 24 mg/kg/day, study day 190): 649.5 g
Avg Wt (QBA 24 mg/kg/day, study day 197): 653.3 g
Avg Wt (QBA 24 mg/kg/day, study day 204): 644.4 g
Avg Wt (QBA 24 mg/kg/day, study day 211): 647.8 g
Avg Wt (QBA 24 mg/kg/day, study day 217): 650.6 g
body weight versus control, repeated measures ANOVA (all doses versus 0 mg/kg/day QBA): small but significant increase
body weight maintenance in aging male rats (summary of Table 13): helped to maintain healthy body weight
